Data: PubChem BioAssay (NCI)
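GI50 marks 50% less growth. TGI: concentration producing complete growth inhibition.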

Experiments:
Assay in all cases: growth of human tumour cells (NCI), 384-well format; in the data active = GI50 below about 0.43 µM; inactive = the rest
[1] = test system: UACC-257 melanoma
[2] = test system: ACHN renal
[3] = test system: HOP-92 NSCLC
[4] = test system: NCI-H23 lung
[5] = test system: MDA-MB-435 melanoma
[6] = test system: KM12 colon
[7] = test system: MCF7 breast
[8] = test system: RXF 393 renal
[9] = test system: IGROV1 ovarian
[10] = test system: HOP-62 NSCLC
[11] = test system: MDA-MB-468 breast
[12] = test system: HCT-15 colon
[13] = test system: CAKI-1 renal
[14] = test system: HT29 colon
[15] = test system: K-562 leukemia
[16] = test system: COLO 205 colon
[17] = test system: SK-MEL-28 melanoma
[18] = test system: A549 NSCLC
[19] = test system: A498 renal
[20] = test system: SNB-75 CNS
[21] = test system: TK-10 renal
[22] = test system: MOLT-4 leukemia
[23] = test system: NCI-H322M lung
[24] = test system: MDA-MB-231 breast
[25] = test system: SK-MEL-5 melanoma
[26] = test system: MALME-3M melanoma
[27] = test system: PC-3 prostate
[28] = test system: SNB-19 CNS
[29] = test system: UO-31 renal
[30] = test system: SK-OV-3 ovarian
[31] = test system: SW-620 colon
[32] = test system: NCI-H460 NSCLC
[33] = test system: HCC-2998 colon
[34] = test system: SR leukemia
[35] = test system: NCI/ADR-RES ovarian
[36] = test system: SF-539 CNS
[37] = test system: OVCAR-5 ovarian
[38] = test system: SN12C renal
[39] = test system: HS 578T breast
[40] = test system: HL-60(TB) leukemia
[41] = test system: OVCAR-8 ovarian
[42] = test system: DU-145 prostate
[43] = test system: SF-295 CNS
[44] = test system: EKVX NSCLC
[45] = test system: M14 melanoma
[46] = test system: OVCAR-4 ovarian
[47] = test system: RPMI-8226 leukemia
[48] = test system: SF-268 CNS
[49] = test system: U251 glioblastoma
[50] = test system: LOX IMVI melanoma
[51] = test system: CCRF-CEM leukemia
[52] = test system: T-47D breast
[53] = test system: NCI-H226 lung
[54] = test system: UACC-62 melanoma
[55] = test system: 786-0 renal
[56] = test system: OVCAR-3 ovarian
[57] = test system: NCI-H522 lung

CN[C@@H](C)C(=O)N[C@H](C(=O)N1CCC[C@H]1C(=O)Nc1snnc1-c1ccccc1)C1CCCCC1
35.6 µM: TGI [22]
46 nM: TGI [46]
36.2 µM: TGI [41]
2780 nM: TGI [30]
39.5 µM: TGI [2]
26.9 µM: TGI [11]
33.6 µM: TGI [34]
15.5 µM: TGI [40]
33.2 µM: TGI [10]
74.6 µM: TGI [19]
45.2 µM: TGI [35]
2510 nM: TGI [24]
32.2 µM: TGI [51]
11.9 µM: TGI [57]
72.7 µM: TGI [45]
46.2 µM: TGI [21]
57.2 µM: TGI [47]
active: GI50 [24] 97.9 nM | GI50 [26] 29.4 nM | GI50 [40] 412 nM | GI50 [46] 14.2 nM
392 nM: TGI [26]
23.8 µM: TGI [8]
32.5 µM: TGI [1]
40.9 µM: TGI [33]
18.1 µM: TGI [25]
35.7 µM: TGI [14]
64.4 µM: TGI [17]
73.6 µM: TGI [3]
35.3 µM: TGI [15]
inactive: GI50 [1] 16.6 µM | GI50 [2] 17.4 µM | GI50 [3] 18.1 µM | GI50 [4] 14.2 µM | GI50 [5] 31.2 µM | GI50 [6] 60.1 µM | GI50 [7] 31.7 µM | GI50 [8] 444 nM | GI50 [9] 64.5 µM | GI50 [10] 11.2 µM | GI50 [11] 6.93 µM | GI50 [12] 80.7 µM | GI50 [13] 52.1 µM | GI50 [14] 17.3 µM | GI50 [15] 19.1 µM | GI50 [16] 34.5 µM | GI50 [17] 22.7 µM | GI50 [18] > 100 µM | GI50 [19] 26.4 µM | GI50 [20] 38.7 µM | GI50 [21] 18.6 µM | GI50 [22] 17.8 µM | GI50 [23] > 100 µM | GI50 [25] 845 nM | GI50 [27] 45.6 µM | GI50 [28] > 100 µM | GI50 [29] 8.13 µM | GI50 [31] > 100 µM | GI50 [32] 38.7 µM | GI50 [33] 21.5 µM | GI50 [34] 13.5 µM | GI50 [35] 5.89 µM | GI50 [36] 40.1 µM | GI50 [37] 59.1 µM | GI50 [38] > 100 µM | GI50 [39] 34.5 µM | GI50 [41] 16.5 µM | GI50 [42] 49.9 µM | GI50 [43] 64 µM | GI50 [44] 97.3 µM | GI50 [45] 28.2 µM | GI50 [47] 22.7 µM | GI50 [48] > 100 µM | GI50 [49] 59.7 µM | GI50 [50] 37.9 µM | GI50 [51] 10.9 µM | GI50 [52] 45.5 µM | GI50 [53] 70.7 µM | GI50 [54] 30.1 µM | GI50 [55] 31.1 µM | GI50 [56] 26.2 µM | GI50 [57] 2440 nM
91.5 µM: TGI [54]
> 100 µM: TGI [4] | TGI [5] | TGI [6] | TGI [7] | TGI [9] | TGI [12] | TGI [13] | TGI [16] | TGI [18] | TGI [20] | TGI [23] | TGI [27] | TGI [28] | TGI [29] | TGI [31] | TGI [32] | TGI [36] | TGI [37] | TGI [38] | TGI [39] | TGI [42] | TGI [43] | TGI [44] | TGI [48] | TGI [49] | TGI [50] | TGI [52] | TGI [53] | TGI [55] | TGI [56]
